How the values were obtained:
[1] = system: rice callus; test: Effective concentration of Imazamox on rice callus under aseptic culture conditions; assay type: cell-based, Oryza sativa; details: 2N6 medium, 28 days; for proliferation state of the callus: 31.5° C.
Protocol: Based on 2N6 solid medium (mentioned earlier), media in 4 stages (0 mg/L, 30 mg/L, 50 mg/L, 70 mg/L) with different Imazamox concentrations were produced. Callus was induced from the scutellum part of rice seed (mentioned earlier), inoculated to 2N6 solid medium added with Imazamox, cultured at 31.5° C. for 28 days in the dark all day, and the proliferation state of the callus was confirmed.
From the above, it was determined that the effective concentration of Imazamox for rice callus was 70 mg/L.

[2] = system: rice (Oryza sativa. L Japonica brand; Nipponbare) seeds; test: Effective concentration of Imazamox on rice plant body under aseptic culture conditions (seed germination); assay type: in vivo
Protocol: Based on 1/2 MS solid medium (MS mix (Sigma), sucrose 15.0 g/L, Gelrite (Wako Pure Chemical Industries, Ltd.) 4.0 g/L, pH 5.8), media in 9 stages (0 mg/L, 0.5 mg/L, 1 mg/L, 2 mg/L, 4 mg/L, 5 mg/L, 10 mg/L, 20 mg/L, 30 mg/L) with different Imazamox concentrations were produced. Successively, chaff of rice (Oryza sativa. L Japonica brand; Nipponbare) seeds was removed, the seeds were shaken in 70% ethanol for 1 min, and sterilized by immersing in 2.5% sodium hypochlorite for 20-30 min while allowing for penetration. […]
From the above, it was determined that the effective concentration of Imazamox under the aseptic culture conditions for rice plant body was 0.5 mg/L.

SMILES: COCc1cnc(C2=NC(C)(C(C)C)C(=O)N2)c(C(=O)O)c1 (stereo not drawn) [Imazamox]
- effective concentration of Imazamox for rice callus [1]: 70 mg/L
- proliferation state of the callus ([1]; Imazamox 50 mg/L or below): mitotic proliferation of callus was observed
- proliferation state of the callus ([1]; Imazamox 70 mg/L): mitotic proliferation was inhibited
- number of seeds, germination (7 days later) ([2]; Imazamox 0.5 mg/L in 1/2 MS medium, 24 seeds): 0
- germination circumstances ([2]; Imazamox 0.5 mg/L or more, 25° C., 7 days): browning of embryo stem and whitening of coleoptile was confirmed in all seeds
- survival rate (%) ([2]; Imazamox 0.5 mg/L, 7 days): 0%
- number of seeds, germination (7 days later) ([2]; Imazamox 1 mg/L in 1/2 MS medium, 23 seeds): 0
- survival rate (%) ([2]; Imazamox 1 mg/L, 7 days): 0%
- number of seeds, germination (7 days later) ([2]; Imazamox 2 mg/L in 1/2 MS medium, 24 seeds): 0
- survival rate (%) ([2]; Imazamox 2 mg/L, 7 days): 0%
- number of seeds, germination (7 days later) ([2]; Imazamox 4 mg/L in 1/2 MS medium, 24 seeds): 0
- survival rate (%) ([2]; Imazamox 4 mg/L, 7 days): 0%
- number of seeds, germination (7 days later) ([2]; Imazamox 5 mg/L in 1/2 MS medium, 24 seeds): 0
- survival rate (%) ([2]; Imazamox 5 mg/L, 7 days): 0%
- number of seeds, germination (7 days later) ([2]; Imazamox 10 mg/L in 1/2 MS medium, 24 seeds): 0
- survival rate (%) ([2]; Imazamox 10 mg/L, 7 days): 0%
- number of seeds, germination (7 days later) ([2]; Imazamox 20 mg/L in 1/2 MS medium, 24 seeds): 0
- survival rate (%) ([2]; Imazamox 20 mg/L, 7 days): 0%
- number of seeds, germination (7 days later) ([2]; Imazamox 30 mg/L in 1/2 MS medium, 24 seeds): 0
- survival rate (%) ([2]; Imazamox 30 mg/L, 7 days): 0%
- effective concentration of Imazamox for rice plant body ([2]; aseptic culture conditions, 1/2 MS medium, 7 days): 0.5 mg/L

From patent US11220693B2, “Method for converting monocot plant genome sequence in which nucleic acid base in targeted DNA sequence is specifically converted, and molecular complex used therein” (NATIONAL UNIVERSITY CORPORATION KOBE UNIVERSITY, priority 2015, dated 2022)
